Reference: patent US6849598B1, “Therapeutic compositions comprising bactericidal/permeability-increasing (BPI) protein products” (XOMA, priority 1995, dated 2005)
Values after ≈ are worked out from the molar mass of the structure shown. Where two headings read alike, the source gives them in different places. Each block holds one compound with its values, some of them ahead of it.

How the values were obtained:
P. aeruginosa = experiment: Antibiotic susceptibility (MIC, Sensititre Trays) with rBPI21 poloxamer formulations; format: cell-based; settings: for MIC: Pseudomonas aeruginosa, read-out: Minimum Inhibitory Concentration
Procedure: (§1) The effect of therapeutic compositions of rBPI21 formulated with poloxamer, with or without EDTA, was evaluated on the antibiotic susceptibility of the multiple drug resistant A. baumannii, S. pneumoniae, E. faecium and P. aeruginosa organisms of Example 5. Therapeutic compositions were prepared containing 2 mg/mL rBPI21, (5 mM sodium citrate, 150 mM NaCl) with a 0.2% (w/v) concentration of PLURONIC F68, P103, P104, P105 or P123. The effect on the antibiotic susceptibility of the organisms was determined in Mueller-Hinton Broth plus Cations (CSMHB, Remel), or 40% pooled human serum in CSMHB (Sigma, St. Louis, Mo.), as follows.
(§2) Isolated colonies of the organism from overnight cultures were suspended in Microscan® Inoculum Water to a concentration equivalent to a 0.5 McFarland Standard (approximately 1×10^8 CFU/ml), determined using a Microscan® turbidimeter. Aliquots were transferred to either CSMHB or 40% pooled human serum in CSMHB. Each tube contained either a final concentration of 16 μg/mL rBPI21 or an equivalent volume of control buffer. Minimal inhibitory concentrations (MIC) for each antibiotic tested, i.e. the lowest concentration of antibiotic which inhibits visible growth, were determined using gram-negative (MB and MC) and gram-positive (MA) Sensititre Trays (Radiometer America, Westlake, Ohio), which allow for the rapid and simultaneous survey of a broad spectrum of standard antibiotics. Any other antimicrobial panel systems known in the art, such as the Microscan® (Dade Microscan, Sacramento, Calif.), Pasco (DIFCO, Detroit, Mich.) and Alamar (Alamar, Sacramento, Calif.) systems, may alternatively be used to assay for antibiotic susceptibility.
(§3) Tables 12-15 below display a summary of the results of the antibiotic screening panels, reported for each strain tested as the MIC of the tested antibiotics in the presence of the indicated rBPI21 therapeutic composition. The antibiotic susceptibility standards (interpretation of an MIC as clinically resistant (R), intermediate (I) or susceptible (S) according to NCCLS standards) applicable to the organism tested appear in superscript next to the MIC.

A. baumannii = experiment: as above; format: cell-based; settings: for MIC: Acinetobacter baumannii, read-out: Minimum Inhibitory Concentration
Procedure: as §1, §2, §3

[1] = CSMHB, 16 μg/mL rBPI21 with F68
[2] = CSMHB, 16 μg/mL rBPI21 with P103
[3] = CSMHB, 16 μg/mL rBPI21 with P104
[4] = CSMHB, 16 μg/mL rBPI21 with P105
[5] = CSMHB, 16 μg/mL rBPI21 with P123
[6] = Serum, 16 μg/mL rBPI21 with F68
[7] = Serum, 16 μg/mL rBPI21 with P103
[8] = Serum, 16 μg/mL rBPI21 with P104
[9] = Serum, 16 μg/mL rBPI21 with P105
[10] = Serum, 16 μg/mL rBPI21 with P123

susceptibility interpretation of MIC (superscript) (P. aeruginosa; [1]): I | susceptibility interpretation of MIC (superscript) (P. aeruginosa; [2]): I | susceptibility interpretation of MIC (superscript) (P. aeruginosa; [3]): R | susceptibility interpretation of MIC (superscript) (P. aeruginosa; [4]): I | susceptibility interpretation of MIC (superscript) (P. aeruginosa; [5]): R | susceptibility interpretation of MIC (superscript) (P. aeruginosa; CSMHB, Control (no BPI)): R | MIC (P. aeruginosa; [1]): 32 µg/mL (≈ 83.5 µM) | MIC (P. aeruginosa; [2]): 16 µg/mL (≈ 41.7 µM) | MIC (P. aeruginosa; [3]): 128 µg/mL (≈ 334 µM) | MIC (P. aeruginosa; [4]): 32 µg/mL (≈ 83.5 µM) | MIC (P. aeruginosa; [5]): 128 µg/mL (≈ 334 µM) | MIC (P. aeruginosa; CSMHB, Control (no BPI)): > 128 µg/mL | MIC (P. aeruginosa; [6]): > 128 µg/mL | MIC (P. aeruginosa; [7]): 16 µg/mL (≈ 41.7 µM) | MIC (P. aeruginosa; [8]): 128 µg/mL (≈ 334 µM) | MIC (P. aeruginosa; [9]): 16 µg/mL (≈ 41.7 µM) | MIC (P. aeruginosa; [10]): 16 µg/mL (≈ 41.7 µM) | MIC (P. aeruginosa; Serum, Control (no BPI)): 128 µg/mL (≈ 334 µM) | susceptibility interpretation of MIC (superscript) (P. aeruginosa; [6]): R | susceptibility interpretation of MIC (superscript) (P. aeruginosa; [7]): I | susceptibility interpretation of MIC (superscript) (P. aeruginosa; [8]): R | susceptibility interpretation of MIC (superscript) (P. aeruginosa; [9]): I | susceptibility interpretation of MIC (superscript) (P. aeruginosa; [10]): I | susceptibility interpretation of MIC (superscript) (P. aeruginosa; Serum, Control (no BPI)): R
Structure (SMILES): CO/N=C(\C(=O)N[C@@H]1C(=O)N2C(C(=O)O)=CCS[C@H]12)c1csc(N)n1 [Ceftizoxime]

Structure (SMILES): O=C(N[C@H](CO)[C@H](O)c1ccc([N+](=O)[O-])cc1)C(Cl)Cl [Chloramphenicol]
MIC (A. baumannii; [1]): 1 µg/mL (≈ 3.09 µM) | MIC (A. baumannii; [2]): < 0.5 µg/mL | MIC (A. baumannii; [3]): 1 µg/mL (≈ 3.09 µM) | MIC (A. baumannii; [4]): < 0.5 µg/mL | MIC (A. baumannii; [5]): < 0.5 µg/mL | MIC (A. baumannii; CSMHB, Control (no BPI)): > 4 µg/mL | MIC (A. baumannii; [6]): > 4 µg/mL | MIC (A. baumannii; [7]): 2 µg/mL (≈ 6.19 µM) | MIC (A. baumannii; [8]): 4 µg/mL (≈ 12.4 µM) | MIC (A. baumannii; [9]): > 4 µg/mL | MIC (A. baumannii; [10]): > 4 µg/mL | MIC (A. baumannii; Serum, Control (no BPI)): > 4 µg/mL | susceptibility interpretation of MIC (superscript) (A. baumannii; [1]): S | susceptibility interpretation of MIC (superscript) (A. baumannii; [2]): S | susceptibility interpretation of MIC (superscript) (A. baumannii; [3]): S | susceptibility interpretation of MIC (superscript) (A. baumannii; [4]): S | susceptibility interpretation of MIC (superscript) (A. baumannii; [5]): S | susceptibility interpretation of MIC (superscript) (A. baumannii; CSMHB, Control (no BPI)): R | susceptibility interpretation of MIC (superscript) (A. baumannii; [6]): R | susceptibility interpretation of MIC (superscript) (A. baumannii; [7]): S | susceptibility interpretation of MIC (superscript) (A. baumannii; [8]): R | susceptibility interpretation of MIC (superscript) (A. baumannii; [9]): R | susceptibility interpretation of MIC (superscript) (A. baumannii; [10]): R | susceptibility interpretation of MIC (superscript) (A. baumannii; Serum, Control (no BPI)): R | susceptibility interpretation of MIC (superscript) (P. aeruginosa; [1]): R | susceptibility interpretation of MIC (superscript) (P. aeruginosa; [2]): I | susceptibility interpretation of MIC (superscript) (P. aeruginosa; [3]): R | susceptibility interpretation of MIC (superscript) (P. aeruginosa; [4]): I | susceptibility interpretation of MIC (superscript) (P. aeruginosa; [5]): I | susceptibility interpretation of MIC (superscript) (P. aeruginosa; CSMHB, Control (no BPI)): R | MIC (P. aeruginosa; [1]): > 32 µg/mL | MIC (P. aeruginosa; [2]): 16 µg/mL (≈ 49.5 µM) | MIC (P. aeruginosa; [3]): > 32 µg/mL | MIC (P. aeruginosa; [4]): 16 µg/mL (≈ 49.5 µM) | MIC (P. aeruginosa; [5]): 16 µg/mL (≈ 49.5 µM) | MIC (P. aeruginosa; CSMHB, Control (no BPI)): > 32 µg/mL | MIC (P. aeruginosa; [6]): > 32 µg/mL | MIC (P. aeruginosa; [7]): 16 µg/mL (≈ 49.5 µM) | MIC (P. aeruginosa; [8]): 16 µg/mL (≈ 49.5 µM) | MIC (P. aeruginosa; [9]): 16 µg/mL (≈ 49.5 µM) | MIC (P. aeruginosa; [10]): 16 µg/mL (≈ 49.5 µM) | MIC (P. aeruginosa; Serum, Control (no BPI)): > 32 µg/mL | susceptibility interpretation of MIC (superscript) (P. aeruginosa; [6]): R | susceptibility interpretation of MIC (superscript) (P. aeruginosa; [7]): I | susceptibility interpretation of MIC (superscript) (P. aeruginosa; [8]): I | susceptibility interpretation of MIC (superscript) (P. aeruginosa; [9]): I | susceptibility interpretation of MIC (superscript) (P. aeruginosa; [10]): I | susceptibility interpretation of MIC (superscript) (P. aeruginosa; Serum, Control (no BPI)): R
